Literature values as cited in US11433083B2, “High-strength testosterone undecanoate compositions” (priority 2010, dated 2022).

Compound: CCCCCCCCCCC(=O)O[C@H]1CC[C@H]2[C@@H]3CCC4=CC(=O)CC[C@]4(C)[C@H]3CC[C@]12C [Testosterone undecanoate, testosterone undecanoate]
- water solubility: < 0.3 ng/mL
